≈ marks a conversion by molar mass, not a printed value.

Data set [1] is described as follows: Water solubility of resveratrol and resveratrol triphosphate. Type of data set: physicochemical. As for the experimental part:
The water solubility of resveratrol is tested at pH 7 in 1 mM potassium phosphate buffer at room temperature. Ten mg of resveratrol (M.W. 228.24) are suspended in 10 ml of buffer. This suspension, corresponding to a concentration of 1 g/l or 4.38 mM, is agitated for 24 hours in a rotary shaker at 25° C. in the dark. The sample is centrifuged at 14,000 rpm for 5 minutes and an OD of 6.26 is determined at 305 nm wavelength at which the ε mM of resveratrol has a value of 28.1. Assuming complete solubility of resveratrol, the OD that should have been obtained is 123.1 (4.38×28.1). With an observed OD of 6.26, the percentage of dissolved resveratrol is 5.1% (6.26×100/123.1) or […].
(§1) In contrast, the solubility and stability of the resveratrol triphosphate tested under the same conditions, in water of different pH, in the range of 4 to 9, at room temperature.

Data set [2] in a line: Visual (color) stability of a cosmetic formulation. Type of data set: physicochemical. The note with it: for color of formulation: 0.1% resveratrol or 0.2% resveratrol^Pi in base formula. As to the method:
Three base formulas are prepared, the control containing no resveratrol, the other two formulas being identical to the control but for one containing 0.1% unmodified resveratrol, and the other containing 0.2% of phosphorylated resveratrol (Resveratrol^Pi).
The color of the control base is white, and with addition of the resveratrols, it takes on a light beige color. Each formulation is observed once a week for a period of four weeks to determine the presence of a color change (indicative of changing color stability), under three different environmental conditions: 50° C., 4° C., and room temperature (RT).

Data set [3] concerns extractable fraction of human SC D-squame tape strippings (acid phosphatase present on the skin). The experiment in a line: Dephosphorylation of resveratrol^Pi by extractable fraction of stratum corneum D-squame tape strippings. The note with it: resveratrol^Pi 0.22 mg/ml or 0.47 mM, FIG. 3; for correlation (r) of amount with incubation time: N=15. As for the experimental part:
D-squame tape strippings were collected on the inner lower arm of one panelist. […] The extractable fraction was transferred to another vial and mixed with resveratrol^Pi stock-solution. The concentration of resveratrol^Pi during the incubation was 0.22 mg/ml or 0.47 mM. At various incubation time points a 25 μl aliquot of the incubation mixture was diluted in 25 μl 10 mM o-phosphoric acid and 50 μl of MeOH and injected onto the HPLC system.

The test system of data set [4] is acid phosphatase from wheat germ. The experiment in a line: Enzymatic dephosphorylation of resveratrol^Pi by acid phosphatase, HPLC analysis. The note with it: resveratrol^Pi 1.6 mg/ml, acid phosphatase 0.056 U/ml, pH 5.5; FIG. 2. As for the experimental part:
The experimental conditions for the HPLC analysis of resveratrol are shown below.
Phosphorylated resveratrol was incubated in the presence of acid phosphatase from wheat germ (Sigma, P3627 lot 081K7071) in 0.147M (NH4)2SO4/0.81 mM MgCl2 pH 5.5. The concentration of resveratrol^Pi and acid phosphatase was 1.6 mg/ml and 0.056 U/ml respectively. Aliquots were taken at different time intervals and analysed by HPLC (conditions see above).

The nature of data set [5]: Stability of resveratrol triphosphate in solid and water solution form. Type of data set: physicochemical.
Text: as §1

On to `Oc1ccc(/C=C/c2cc(O)cc(O)c2)cc1` [resveratrol], for which the solubility at 24 h in data set [1] (25 °C, pH 7, aqueous buffer, thermodynamic from solid) came to 5.1 µg/mL (≈ 22.3 µM). Also, the “percentage of dissolved resveratrol” value in data set [1] (pH 7, 1 mM potassium phosphate buffer, 1 g/l suspension, 24 hours, 25° C., OD at 305 nm) was determined as 5.1%. For the same compound, the color of formulation entry is “lt beige” in data set [2] (1 week, 4° C.); “lt beige” in data set [2] (1 week, 50° C.); “lt beige” in data set [2] (1 week, room temperature); “lt beige” in data set [2] (2 weeks, 4° C.); “lt beige” in data set [2] (2 weeks, 50° C.); “lt beige” in data set [2] (2 weeks, room temperature). Moreover, the color of formulation result is on record as “lt beige” in data set [2] (3 weeks, 4° C.); “lt beige (vsl darker with sl top oxidation)” in data set [2] (3 weeks, 50° C.); “lt beige” in data set [2] (3 weeks, room temperature); “lt beige (sl lighter beige than RT)” in data set [2] (4 weeks, 4° C.); “beige (sl darker than RT with top oxidation)” in data set [2] (4 weeks, 50° C.); “lt beige/beige” in data set [2] (4 weeks, room temperature). For the same compound, the “correlation (r) of amount with incubation time” value in data set [3] stood at 0.99.

resveratrol diphosphate: the “incubation time at which the maximum amount is reached” value in data set [4] is reported as “around 85 minutes”.

In the case of resveratrol triphosphate, in data set [1] (water of different pH, range 4 to 9, room temperature), the solubility is more than 30 % w/v. In addition, in data set [5], the stability result is “stable in both solid and water solution form for periods in excess of one year”. In addition, the “conversion on treatment with acid phosphatase (HPLC)” value in data set [4] is listed as “decreased gradually”. The “color development versus unmodified resveratrol” value in data set [2] (at the end of four weeks) is reported as “less color development than the unmodified resveratrol”. For the same compound, in data set [3], the “correlation (r) of amount with incubation time” value was −0.69. In addition, in data set [3] (pH 5.6), the “conversion on incubation with extractable fraction of SC D-squame tape strippings (HPLC)” value is on record as “decreased gradually”.
